Assay [1] deals with T1, Prostaglandin E2 receptor EP4 subtype (Mus musculus, UniProt P32240). Briefly: Effective concentration for increased intracellular c-AMP production by mouse Prostanoid EP4 receptor. It counts as functional, cell-based.
Assay [2] concerns the target Prostaglandin E2 receptor EP2 subtype (Mus musculus, UniProt Q62053). Briefly: Affinity for mouse Prostanoid EP2 receptor expressed in CHO cells. It is filed as cell-based.
For another assay, the target named is Prostacyclin receptor (Homo sapiens, UniProt P43119). The assay can be described thus: Affinity for human Prostanoid IP receptor expressed in CHO cells. It is filed as cell-based.
Prostacyclin receptor, sequence (P43119 whole entry): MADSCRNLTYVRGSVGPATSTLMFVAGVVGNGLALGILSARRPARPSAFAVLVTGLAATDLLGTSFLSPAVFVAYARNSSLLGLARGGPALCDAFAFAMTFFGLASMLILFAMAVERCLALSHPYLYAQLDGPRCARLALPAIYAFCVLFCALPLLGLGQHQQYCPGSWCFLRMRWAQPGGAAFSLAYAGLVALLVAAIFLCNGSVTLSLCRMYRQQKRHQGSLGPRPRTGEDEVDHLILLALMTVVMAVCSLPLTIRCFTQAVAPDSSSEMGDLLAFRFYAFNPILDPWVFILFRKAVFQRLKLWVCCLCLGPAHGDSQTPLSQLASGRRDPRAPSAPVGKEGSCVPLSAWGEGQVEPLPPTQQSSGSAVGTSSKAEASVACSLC
The target of assay [3] is T1, Prostaglandin E2 receptor EP4 subtype. The assay can be described thus: Affinity for mouse Prostanoid EP4 receptor expressed in CHO cells. It is filed as cell-based.
For assay [4], the target named is T2, Prostaglandin E2 receptor EP1 subtype (Mus musculus, UniProt P35375).
T2 sequence (P35375 whole entry): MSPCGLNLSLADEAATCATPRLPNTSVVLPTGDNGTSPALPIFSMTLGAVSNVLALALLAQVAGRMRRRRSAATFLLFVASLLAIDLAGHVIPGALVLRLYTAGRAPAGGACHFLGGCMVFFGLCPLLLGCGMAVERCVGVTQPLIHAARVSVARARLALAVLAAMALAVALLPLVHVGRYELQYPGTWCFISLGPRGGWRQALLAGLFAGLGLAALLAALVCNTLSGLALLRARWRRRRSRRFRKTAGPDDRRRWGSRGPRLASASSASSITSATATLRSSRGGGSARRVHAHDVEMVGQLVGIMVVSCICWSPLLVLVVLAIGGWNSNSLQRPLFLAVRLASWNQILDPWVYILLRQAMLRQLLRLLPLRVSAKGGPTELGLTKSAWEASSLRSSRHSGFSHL
The assay can be described thus: Affinity for mouse Prostanoid EP1 receptor expressed in CHO cells. It is filed as cell-based.

Assay [5] concerns the target T3, Prostaglandin E2 receptor EP3 subtype (Mus musculus, UniProt P30557).
T3 sequence (P30557 whole entry): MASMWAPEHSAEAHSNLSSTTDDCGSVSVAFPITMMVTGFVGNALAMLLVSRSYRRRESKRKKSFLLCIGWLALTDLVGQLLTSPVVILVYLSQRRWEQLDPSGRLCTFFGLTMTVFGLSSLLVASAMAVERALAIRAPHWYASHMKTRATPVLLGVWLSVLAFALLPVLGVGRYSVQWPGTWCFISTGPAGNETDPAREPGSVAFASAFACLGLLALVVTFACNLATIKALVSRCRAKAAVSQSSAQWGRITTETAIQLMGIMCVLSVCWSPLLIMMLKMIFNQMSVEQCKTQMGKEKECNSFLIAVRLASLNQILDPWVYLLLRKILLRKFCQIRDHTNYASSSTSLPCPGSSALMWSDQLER
The assay can be described thus: Affinity for mouse Prostanoid EP3 receptor expressed in CHO cells. It counts as cell-based.

For assay [6], the system named is Rattus norvegicus. Briefly: Suppression of production of plasma TNF-alpha after intravenous infusion of 10, 30, 100 and 300 ng/kg/min; significant. It is filed as functional, organism-based.
The species entered for assay [7] is Rattus norvegicus. The assay can be described thus: Stimulation of Uterine motility which mediates the EP3-receptor in rats. It counts as functional.

Molecules are shown by their SMILES.

T1 sequence (P32240 whole entry): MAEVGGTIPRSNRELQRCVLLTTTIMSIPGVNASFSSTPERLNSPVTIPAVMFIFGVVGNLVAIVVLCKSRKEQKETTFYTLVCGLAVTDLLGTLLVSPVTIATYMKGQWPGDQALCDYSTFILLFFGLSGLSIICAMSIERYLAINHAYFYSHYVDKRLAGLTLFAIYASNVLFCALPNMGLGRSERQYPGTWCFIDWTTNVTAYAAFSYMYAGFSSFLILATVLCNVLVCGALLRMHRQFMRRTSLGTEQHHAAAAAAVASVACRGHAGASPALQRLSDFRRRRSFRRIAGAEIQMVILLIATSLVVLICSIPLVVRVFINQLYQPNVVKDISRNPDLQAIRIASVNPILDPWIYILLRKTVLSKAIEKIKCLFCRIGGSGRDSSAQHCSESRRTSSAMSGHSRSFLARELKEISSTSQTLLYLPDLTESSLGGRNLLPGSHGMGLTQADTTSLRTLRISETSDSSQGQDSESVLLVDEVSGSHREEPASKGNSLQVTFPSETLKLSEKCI
Prostaglandin E2 receptor EP2 subtype, sequence (Q62053 whole entry): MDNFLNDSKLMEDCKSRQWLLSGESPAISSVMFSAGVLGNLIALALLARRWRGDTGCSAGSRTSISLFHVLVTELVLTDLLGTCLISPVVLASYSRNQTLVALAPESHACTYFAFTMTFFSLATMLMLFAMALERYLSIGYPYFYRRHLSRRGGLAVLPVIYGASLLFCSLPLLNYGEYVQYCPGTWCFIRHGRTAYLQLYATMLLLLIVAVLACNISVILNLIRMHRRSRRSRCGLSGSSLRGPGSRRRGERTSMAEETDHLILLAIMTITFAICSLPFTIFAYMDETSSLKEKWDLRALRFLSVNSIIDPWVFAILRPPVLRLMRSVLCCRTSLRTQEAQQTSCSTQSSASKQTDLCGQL

In assay [1], `Cc1cc(C[C@H](O)/C=C/[C@H]2[C@H](O)CC(=O)[C@@H]2CCSCCCC(=O)O)ccc1O` returned an EC50 of 20 nM. For the same molecule, the figures for the Ki (in assay [2]; on Prostacyclin receptor; in assay [3]) were 7400 nM, more than 10000 nM and 4.9 nM, respectively.
For the molecule `COCc1cccc(C[C@H](O)/C=C/[C@H]2[C@H](O)CC(=O)[C@@H]2CCSCCCC(=O)O)c1`, the Ki in assay [4] was more than 10000 nM; in assay [5] it was 56 nM; in assay [2], 620 nM; at Prostacyclin receptor it was more than 10000 nM; in assay [3] it was 0.7 nM. Moreover, in assay [1], the EC50 is 1.6 nM.
For `COCc1cccc(C[C@H](O)/C=C/[C@@H]2[C@@H](CCSCCCC(=O)O)[C@H](F)C[C@H]2O)c1`, the midpoint of the response in assay [1], the EC50, lay at 270 nM. For the same molecule, the values for the Ki (in assay [2]; on Prostacyclin receptor; in assay [3]) were 3100 nM, more than 10000 nM and 32 nM, respectively.
As for `CCCCC[C@H](O)/C=C/[C@H]1[C@H](O)CC(=O)[C@@H]1CCCSCCC(=O)O`, the inhibition constant Ki in assay [4] was found to be 27 nM; in assay [5] it was 3.7 nM; in assay [2], 340 nM; on Prostacyclin receptor, 920 nM; in assay [3] it was 11 nM. A half-maximal response in assay [1] (EC50) required 1000 nM.
Consider `COCc1cccc(C[C@H](O)/C=C/[C@H]2[C@H](O)CC(=O)[C@@H]2CCSCCCC(=O)OC)c1` [RIVENPROST], for which, in the assay on Rattus norvegicus [6], the Supression entry is listed as “significant”. Also, the ED50 in the assay filed under Rattus norvegicus [7] is more than 300 mg/kg.
Take `Cc1cc(C[C@H](O)/C=C/[C@@H]2[C@@H](C/C=C/CCCC(=O)O)[C@H](Cl)C[C@H]2O)ccc1O`: the inhibition constant Ki in assay [4] is 3100 nM; in assay [5], 2200 nM; in assay [2], 290 nM; at Prostacyclin receptor it was more than 10000 nM; in assay [3] it was 7.7 nM. Moreover, the EC50 in assay [1] is 44 nM.
Regarding `COCc1cccc(C[C@H](O)/C=C/[C@@H]2[C@@H](C/C=C/CCCC(=O)O)[C@H](Cl)C[C@H]2O)c1`, the Ki was 980 nM in assay [4]; 92 nM in assay [5]; 12 nM in assay [2]; more than 10000 nM at Prostacyclin receptor; 0.5 nM in assay [3]. Moreover, a half-maximal effect in assay [1] (EC50) was put at 3.3 nM.
Turning to `CCCCC[C@H](O)/C=C/[C@H]1[C@H](O)CC(=O)[C@@H]1CCCCSCC(=O)O`, the Ki is 200 nM in assay [4]; 1.2 nM in assay [5]; 49 nM in assay [2]; more than 10000 nM at Prostacyclin receptor; 2.1 nM in assay [3]. The molecule also yielded a concentration giving a half-maximal response (EC50) in assay [1] of 46 nM.
On to `CCCCC[C@H](O)/C=C/[C@H]1[C@H](O)CC(=O)[C@@H]1CCCCCCC(=O)O` [ALPROSTADIL], for which the Ki in assay [4] is 6 nM; in assay [2], 22 nM; on Prostacyclin receptor it was more than 10000 nM; in assay [3], 3.1 nM. The molecule further had a half-maximal effective concentration (EC50) in assay [1] of 3.6 nM.
Regarding `COCc1cccc(C[C@H](O)/C=C/[C@@H]2[C@@H](CCCCCCC(=O)O)[C@H](Cl)C[C@H]2O)c1`, the inhibitory constant (Ki) in assay [4] was 5400 nM; in assay [5] it was 740 nM; in assay [2], 370 nM; at Prostacyclin receptor, more than 10000 nM; in assay [3], 2.7 nM. In assay [1], this molecule displayed an EC50 of 160 nM.
For the molecule `CCCCC[C@H](O)/C=C/[C@H]1[C@H](O)CC(=O)[C@@H]1CSCCCCC(=O)O`, the Ki in assay [4] was found to be 95 nM; in assay [5] it was 2 nM; in assay [2], 91 nM; at Prostacyclin receptor, 1400 nM; in assay [3], 8.7 nM. In assay [1], this molecule came in with an EC50 of 1000 nM.
For the molecule `COCc1cccc(C[C@H](O)/C=C/[C@@H]2[C@@H](C/C=C/CCCC(=O)O)[C@H](F)C[C@H]2O)c1`, the Ki in assay [4] is 1700 nM; in assay [5], 94 nM; in assay [2] it was 58 nM; at Prostacyclin receptor it was more than 10000 nM; in assay [3] it was 3.4 nM. The same molecule displayed a half-maximal effective concentration (EC50) in assay [1] of 14 nM.
With `CCCCC[C@H](O)/C=C/[C@H]1[C@H](O)CC(=O)[C@@H]1CCSCCCC(=O)O`, the Ki was 52 nM in assay [4]; 1.9 nM in assay [5]; 75 nM in assay [2]; 750 nM on Prostacyclin receptor; 0.5 nM in assay [3]. In assay [1], this molecule had an EC50 of 3.6 nM.

What is called EC50 is the concentration at which the effect is half-maximal. Higher therefore signals weaker potency. Usually Ki stands for a measure of affinity in units of concentration, obtained from inhibition or displacement. A low value points to tighter binding. The ED50 is the dose at which the effect has come halfway, by size or by number of responders. Low values mean greater potency, high ones weaker potency.
